Data published in patent publication EP1196433B1, “CYCLIC PEPTIDE DERIVATIVES AS INHIBITORS OF INTEGRIN ALPHA v BETA 6” (Merck Patent GmbH, priority 1999, dated 2001).
Non-standard residues stand in square brackets, D forms with d. Residues, ends and D or L forms follow the SMILES beside them.

Target: T1, αvβ6 Rezeptor (Homo sapiens, UniProt P06756+P18564)
T1 construct: Die Immobilisierung von löslichem αvβ6 Rezeptor auf Microtiterplatten
Assay: αvβ6 / fibronectin receptor binding test (competition of peptide with biotinylated fibronectin on immobilised integrin, ELISA read-out)
Settings: for -log Q / Q (IC50[Substanz] / IC50[EMD 271293]): peptides Cyclo-(Arg-Gly-Asp-Leu-D-Asp-Ala-Leu-Arg-R^1), labelled by R^1; for -log Q: Q = IC50[Substanz] / IC50[EMD 271293]; for Q (IC50[Substanz] / IC50[EMD 271293]): ratio to comparison compound EMD 271293; for Q-Wert = IC50 Testpeptid / IC50 EMD 271293: standard Ac-RTDLDSLR-NH2, Q values of repeated experiments averaged
Text: αvβ6 / Fibronektin Rezeptorbindungstest:
Die hergestellten erfindungsgemäßen Peptide wurden in Lösung zusammen mit kompetetiv wirkenden Fibronektin an den immobiliserten αvβ6 Rezeptor gebunden und der Q-Wert als Maß für die Selektivität der Bindung des zu testenden Peptids an αvβ6 ermittelt. Der Q-Wert berechnet sich dabei aus dem Quotienten der IC50-Werte von Testpeptid und einem Standard. Als Standard diente das lineare Ac-RTDLDSLR-NH2 (Code EMD 271293) (Lit./Patent vgl Pytela et al. Science 231, 1559, (1986)). Der Bindungstest wurde im einzelnen wie folgt durchgeführt: • Die Immobilisierung von löslichem αvβ6 Rezeptor auf Microtiterplatten erfolgte durch Verdünnung der Proteinlösung in TBS++ und anschliessender Inkubation über Nacht bei 4°C (100 µl/Vertiefung). Unspezifische • Bindungsstellen wurden durch Inkubation (2 h, 37°C) mit 3% (w/v) BSA in TBS++ (200 µl/Vertiefung) blockiert. Überschüssiges BSA wurde durch dreimaliges Waschen mit TBSA++ entfernt. Peptide wurden seriell (1:10) in TBSA++ verdünnt und zusammen mit biotinyliertem Fibronektin (2 µg/ ml) mit dem immobilisierten Integrin inkubiert (50 µl Peptid + 50 µl Ligand pro Vertiefung; 2 h; 37°C). Nicht gebundenes Fibronektin und Peptide wurden durch dreimaliges Waschen mit TBSA++ entfernt. Die Detektion des gebundenen Fibronektin erfolgte durch Inkubation (1 h; 37 °C) mit einem alkalische-Phosphatase-gekoppelten anti-Biotin-Antikörper (Biorad) (1:20000 in TBSA++; 100 µl/Vertiefung). Nach dreimaligem Waschen mit TBSA++ erfolgte die kolorimetrische Detektion durch Inkubation (10-15 min; 25°C, im Dunkeln) mit Substratlösung (5 mg Nitrophenylphosphat, 1 ml Ethanolamin, 4 ml H2O; 100 µl/Vertiefung). Die Enzymreaktion wurde durch Zugabe von 0,4 M NaOH (100 µl/Vertiefung) gestoppt. Die Farbintensität wurde bei 405 nm im ELISA-Meßgerät bestimmt und gegen den Nullwert abgeglichen. Als Nullwert dienten Vertiefungen, die nicht mit Rezeptor beschichtet waren. Als Standard wurde Ac-RTDLDSLR-NH2 eingesetzt. Die IC50-Werte für die getesteten Peptide wurden aus einer Graphik abgelesen und daraus zusammen mit dem IC50-Wert des Standardpeptids der Q-Wert des erfindungsgemäßen Peptids ermittelt. Q-Wert = IC50 Testpeptid/IC50 Standard [formula] Q-Werte aus Versuchswiederholungen wurden gemittelt.

[1] = biotinylated fibronectin 2 µg/ml

T1 sequence (P06756 31-992 limits assumed): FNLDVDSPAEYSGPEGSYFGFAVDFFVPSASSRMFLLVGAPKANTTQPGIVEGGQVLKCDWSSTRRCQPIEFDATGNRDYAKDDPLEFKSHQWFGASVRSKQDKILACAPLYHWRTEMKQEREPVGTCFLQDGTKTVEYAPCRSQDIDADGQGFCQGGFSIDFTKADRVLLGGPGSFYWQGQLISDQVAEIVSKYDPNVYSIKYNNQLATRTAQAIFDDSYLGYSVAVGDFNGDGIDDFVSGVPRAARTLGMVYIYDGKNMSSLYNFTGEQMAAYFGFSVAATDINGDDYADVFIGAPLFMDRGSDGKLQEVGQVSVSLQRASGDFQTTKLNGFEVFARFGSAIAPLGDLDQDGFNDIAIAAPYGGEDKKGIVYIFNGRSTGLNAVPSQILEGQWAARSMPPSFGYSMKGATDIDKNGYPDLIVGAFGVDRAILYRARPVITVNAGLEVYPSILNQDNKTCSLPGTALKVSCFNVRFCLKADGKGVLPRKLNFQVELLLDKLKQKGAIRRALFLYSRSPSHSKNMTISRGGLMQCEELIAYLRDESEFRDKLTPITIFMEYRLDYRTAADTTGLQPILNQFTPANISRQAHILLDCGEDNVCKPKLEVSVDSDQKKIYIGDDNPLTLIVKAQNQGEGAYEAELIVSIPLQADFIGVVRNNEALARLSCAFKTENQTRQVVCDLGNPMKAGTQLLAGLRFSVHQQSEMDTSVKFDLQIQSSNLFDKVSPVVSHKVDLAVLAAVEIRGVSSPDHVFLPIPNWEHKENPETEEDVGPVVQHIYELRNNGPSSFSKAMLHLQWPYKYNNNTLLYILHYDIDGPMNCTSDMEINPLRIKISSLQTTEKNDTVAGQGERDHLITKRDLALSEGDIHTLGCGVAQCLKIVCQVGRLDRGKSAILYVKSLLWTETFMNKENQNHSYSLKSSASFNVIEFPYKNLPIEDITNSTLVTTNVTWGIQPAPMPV
T1 sequence (P18564 22-709 limits assumed): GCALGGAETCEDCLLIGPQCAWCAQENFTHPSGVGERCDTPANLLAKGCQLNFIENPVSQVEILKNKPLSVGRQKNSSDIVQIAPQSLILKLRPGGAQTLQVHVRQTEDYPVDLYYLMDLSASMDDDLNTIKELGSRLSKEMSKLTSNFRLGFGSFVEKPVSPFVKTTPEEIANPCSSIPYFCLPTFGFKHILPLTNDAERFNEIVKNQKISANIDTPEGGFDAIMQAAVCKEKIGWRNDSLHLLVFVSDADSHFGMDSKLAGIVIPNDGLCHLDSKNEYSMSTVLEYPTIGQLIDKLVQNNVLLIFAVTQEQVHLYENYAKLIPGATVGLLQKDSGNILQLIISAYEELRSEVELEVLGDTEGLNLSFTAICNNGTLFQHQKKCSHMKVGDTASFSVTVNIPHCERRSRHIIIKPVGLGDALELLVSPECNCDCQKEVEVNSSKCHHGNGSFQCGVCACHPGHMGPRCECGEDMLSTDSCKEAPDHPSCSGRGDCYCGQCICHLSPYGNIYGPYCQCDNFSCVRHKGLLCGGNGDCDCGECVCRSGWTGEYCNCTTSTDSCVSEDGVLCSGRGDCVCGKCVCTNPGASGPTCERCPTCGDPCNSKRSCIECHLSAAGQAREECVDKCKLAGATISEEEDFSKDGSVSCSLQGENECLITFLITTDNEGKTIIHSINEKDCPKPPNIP

| Compound | -log Q | Q (IC50[Substanz] / IC50[EMD 271293]) | IC50 (IC50 of the standard peptide, printed in brackets beside its Q value, biotinylated fibronectin 2 µg/ml) [nM] | Q-Wert = IC50 Testpeptid / IC50 EMD 271293 [1] |
| --- | --- | --- | --- | --- |
| cyclo-(RGDLdALR-Abu) [EMD 273035] | 1,553 | 0,028 |  |  |
| cyclo-(RGDLdALR-Aha) [EMD 272959] | 1,444 | 0,036 |  |  |
| CC(C)C[C@@H]1NC(=O)[C@H](C)NC(=O)[C@@H](CC(=O)O)NC(=O)[C@H](CC(C)C)NC(=O)[C@H](CC(=O)O)NC(=O)CNC(=O)[C@H](CCCNC(=N)N)NC(=O)CNC(=O)CNC(=O)CNC(=O)CNC(=O)CNC(=O)CNC(=O)[C@H](CCCNC(=N)N)NC1=O [EMD 271594, cyclo-(RGDLdALRGGGGGG)] (cyclo(RGDL[dD]ALRGGGGGG)) | 1,301 | 0,05 |  |  |
| CC(C)C[C@@H]1NC(=O)[C@H](C)NC(=O)[C@@H](CC(=O)O)NC(=O)[C@H](CC(C)C)NC(=O)[C@H](CC(=O)O)NC(=O)CNC(=O)[C@H](CCCNC(=N)N)NC(=O)CNC(=O)CNC(=O)CNC(=O)[C@H](CCCNC(=N)N)NC1=O [EMD 271593] (cyclo(RGDL[dD]ALRGGG)) | 1,523 | 0,03 |  |  |
| CC(C)C[C@@H]1NC(=O)[C@H](C)NC(=O)[C@@H](CC(=O)O)NC(=O)[C@H](CC(C)C)NC(=O)[C@H](CC(=O)O)NC(=O)CNC(=O)[C@H](CCCNC(=N)N)NC(=O)CNC(=O)CNC(=O)[C@H](CCCNC(=N)N)NC1=O [EMD 271592, cyclo-(RGDLdALRGG)] (cyclo(RGDL[dD]ALRGG)) | 1,301 | 0,05 |  |  |
| CC(=O)N[C@@H](CCCNC(=N)N)C(=O)N[C@H](C(=O)N[C@@H](CC(=O)O)C(=O)N[C@@H](CC(C)C)C(=O)N[C@@H](CC(=O)O)C(=O)N[C@@H](CO)C(=O)N[C@@H](CC(C)C)C(=O)N[C@@H](CCCNC(=N)N)C(N)=O)[C@@H](C)O [compound 271293] (Ac-RTDLDSLR-NH2) |  |  | 75 | 1,00 |
| CC(C)C[C@@H]1NC(=O)[C@H](C)NC(=O)[C@@H](CC(=O)O)NC(=O)[C@H](CC(C)C)NC(=O)[C@H](CC(=O)O)NC(=O)CNC(=O)[C@H](CCCNC(=N)N)NC(=O)CNC(=O)CNC(=O)CNC(=O)[C@H](CCCNC(=N)N)NC1=O [compound 271593] (cyclo(RGDL[dD]ALRGGG)) |  |  |  | 0,03 |
| CC(C)C[C@@H]1NC(=O)[C@H](C)NC(=O)[C@@H](CC(=O)O)NC(=O)[C@H](CC(C)C)NC(=O)[C@H](CC(=O)O)NC(=O)CNC(=O)[C@H](CCCNC(=N)N)NC(=O)CNC(=O)CNC(=O)[C@H](CCCNC(=N)N)NC1=O [compound 271592] (cyclo(RGDL[dD]ALRGG)) |  |  |  | 0,05 |
| cyclo-(RGDLdALR-Aha-Aha) [EMD 272958] | 1,444 | 0,036 |  |  |
| CC(C)C[C@@H]1NC(=O)[C@H](C)NC(=O)[C@@H](CC(=O)O)NC(=O)[C@H](CC(C)C)NC(=O)[C@H](CC(=O)O)NC(=O)CNC(=O)[C@H](CCCNC(=N)N)NC(=O)CNC(=O)CNC(=O)CNC(=O)CNC(=O)CNC(=O)CNC(=O)[C@H](CCCNC(=N)N)NC1=O [compound 271594] (cyclo(RGDL[dD]ALRGGGGGG)) |  |  |  | 0,05 |
| CC(C)C[C@@H]1NC(=O)[C@H](C)NC(=O)[C@@H](CC(=O)O)NC(=O)[C@H](CC(C)C)NC(=O)[C@H](CC(=O)O)NC(=O)CNC(=O)[C@H](CCCNC(=N)N)NC(=O)CNC(=O)CNC(=O)CNC(=O)CNC(=O)CNC(=O)[C@H](CCCNC(=N)N)NC1=O [EMD 272962, cyclo-(RGDLdALRGGGGG)] (cyclo(RGDL[dD]ALRGGGGG)) | 1,337 | 0,046 |  |  |
| CC(C)C[C@@H]1NC(=O)[C@H](C)NC(=O)[C@@H](CC(=O)O)NC(=O)[C@H](CC(C)C)NC(=O)[C@H](CC(=O)O)NC(=O)CNC(=O)[C@H](CCCNC(=N)N)NC(=O)CNC(=O)[C@H](CCCNC(=N)N)NC1=O [compound 271591] (cyclo(RGDL[dD]ALRG)) |  |  |  | 2,1 |
| CC(C)C[C@@H]1NC(=O)[C@H](C)NC(=O)[C@@H](CC(=O)O)NC(=O)[C@H](CC(C)C)NC(=O)[C@H](CC(=O)O)NC(=O)CNC(=O)[C@H](CCCNC(=N)N)NC(=O)CNC(=O)CNC(=O)CNC(=O)CNC(=O)[C@H](CCCNC(=N)N)NC1=O [compound 272961] (cyclo(RGDL[dD]ALRGGGG)) |  |  |  | 0,033 |
| cyclo-(RGDLdALR-Abu-Abu) [EMD 272914] | 1,523 | 0,03 |  |  |
| CC(C)C[C@@H]1NC(=O)[C@H](C)NC(=O)[C@@H](CC(=O)O)NC(=O)[C@H](CC(C)C)NC(=O)[C@H](CC(=O)O)NC(=O)CNC(=O)[C@H](CCCNC(=N)N)NC(=O)CNC(=O)CNC(=O)CNC(=O)CNC(=O)[C@H](CCCNC(=N)N)NC1=O [EMD 272961, cyclo-(RGDLdALRGGGG)] (cyclo(RGDL[dD]ALRGGGG)) | 1,481 | 0,033 |  |  |
| CC(C)C[C@@H]1NC(=O)[C@H](C)NC(=O)[C@@H](CC(=O)O)NC(=O)[C@H](CC(C)C)NC(=O)[C@H](CC(=O)O)NC(=O)CNC(=O)[C@H](CCCNC(=N)N)NC(=O)CNC(=O)[C@H](CCCNC(=N)N)NC1=O [EMD 271591, cyclo-(RGDLdALRG)] (cyclo(RGDL[dD]ALRG)) | -0,322 | 2,1 |  |  |
| CC(C)C[C@@H]1NC(=O)[C@H](C)NC(=O)[C@@H](CC(=O)O)NC(=O)[C@H](CC(C)C)NC(=O)[C@H](CC(=O)O)NC(=O)CNC(=O)[C@H](CCCNC(=N)N)NC(=O)CNC(=O)CNC(=O)CNC(=O)CNC(=O)CNC(=O)[C@H](CCCNC(=N)N)NC1=O [compound 272962] (cyclo(RGDL[dD]ALRGGGGG)) |  |  |  | 0,046 |
